From patent US5451686A, “3 and 5 alkyl and phenyl 4-(hydroxy or acyloxy)-alkyl substituted 2(5H)-furanones as anti-inflammatory agents” (Allergan, Inc., priority 1994, dated 1995)
Like-named read-outs stand apart in the source and are kept apart here.

Key:
Calcium^2+ channel = assay: Calcium Channel (mobilization) Inhibition Assay (Fura-2 fluorescence); assay type: cell-based
Excerpt: Calcium Channel (mobilization) Inhibition Assay
Polymorphonuclear leukocytes (PMNa), gastric glands, GH3 cells, A431 cells, spleen cells, human keratinocytes corneal cells, etc. were loaded with the Ca^2+ sensitive fluorescent dye, Fura-2. The appropriate cell type was chosen and the potency and efficacy of the anti-inflammatory furanones on calcium mobilization, calcium channel inhibition was quantitated. The methods used for A431 cells listed below are representative of those used for other cells.
A431 cells were detached using a 5-10 min trypsin-EDTA treatment whereas GH3 cells were treated 2 to 5 min with a 1% pancreatin solution. Cells were immediately washed twice in a 20 mM HEPES buffer (pH 7.4) containing 120 mM NaCl, 6 mM KCl, 1 mM MgSO4, 1 mg/ml glucose and 1 mg/ml pyruvate and 1.4 mM calcium (medium A). Approximately 5×10^6 cells were suspended in medium A and incubated with 4 uM fura-2-AM for 15 min at 37° C.
After washing the fura-2 loaded cells, the uptake of dye was checked using fluorescence microscopy and found to be evenly distributed in the cytosol of all cells. Fluorescence was continuously recorded with a Perkin-Elmer LS-5 spectrofluorometer. The excitation wavelength was set at 340 nm and emission wavelength set at 500 nm. The cell suspension was continually stirred, maintained at 37° C. and equilibrated for approximately 5 min before addition of various agents. [Ca^2+ i was calculated using the following formula: [formula]
All fluorescence values were measured relative to a EGTA-quenched signal determined as follows: F was the relative fluorescence measurement of the sample. Fmax was determined by lysing the cells with digitonin (100 ug/ml) in DMSO. After Fmax was determined the pH was adjusted to 8, with NaOH and Ca^2+ chelated with 3 mM EGTA to totally quench the fura-2 signal and obtain Fmin.
When quin-2- was used, cells were incubated with 10 uM quin-2- at 37° C. for 1 hour, washed and then used.

[1] = biological target: bee venom phospholipase A2 (Apis mellifera, UniProt P00630); assay type: biochemical
Chain of bee venom phospholipase A2 (P00630 34-167 limits assumed): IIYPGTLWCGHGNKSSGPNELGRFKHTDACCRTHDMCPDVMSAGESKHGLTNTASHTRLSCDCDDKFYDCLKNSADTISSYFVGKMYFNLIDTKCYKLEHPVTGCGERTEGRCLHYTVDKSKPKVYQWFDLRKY

[2] = read-out: IC50, Calcium^2+ Channel Mobilization Inhibition, KCl induced
[3] = read-out: IC50, Calcium^2+ Channel Mobilization Inhibition, TRH induced

| Structure (SMILES) | IC50 (Calcium^2+ channel; [2]) | IC50 (Calcium^2+ channel; [3]) | IC50, Phospholipase A2 Assay [1] | IC50, Calcium^2+ Channel Mobilization Inhibition, TRH induced (Calcium^2+ channel; TRH induced) |
| --- | --- | --- | --- | --- |
| CC1=C(CC/C(C)=C/CCC2=CCC(C3=CC(=O)OC3O)OC2O)C(C)(C)CCC1 (centres unmarked) [manoalide, reference compound] | 800 nM | 600 nM |  |  |
| CCCCCCCCCCCCC(O)C1=CC(=O)OC1C (single isomer, unassigned) [Compound 3, 4-(1-Hydroxytridecyl)-5-methyl-2(5H)-furanone] | 470 nM | 670 nM | inactive at 3 μM |  |
| CCCCCCCCCCCCC(OC(C)=O)C1=C(C)C(=O)OC1 (centres unmarked) [Compound 2, 4-(1-Acetoxytridecyl)-3-methyl-2-furanone] | 250 nM | 1000 nM | inactive at 3 μM |  |
| CCCCCCCCCCCC(=O)OCC1=C(c2ccccc2)C(=O)OC1C (centres unmarked) [Compound 4, 4-Dodecoyloxymethyl-5-methyl-3-phenyl-2(5H)-furanone] | 8000 nM |  | inactive at 3 μM | inactive |
| CCCCCCCCCCCCC(OC(C)=O)C1=CC(=O)OC1C (centres unmarked) [Compound 1, 4-(1-Acetoxytridecyl)-5-methyl-2(5H)-furanone] | 360 nM | 6400 nM | inactive at 3 μM |  |
